Patent EP2862852B1, “Urea derivatives for the protection of stem cells” (Symrise AG, priority 2013, dated 2015)
Read-outs that look alike come from different tables or passages of the source.

Assays:
20S proteasome = biological target: T1, 20S proteasome (Homo sapiens, UniProt P28074); assay: 20S Proteasome Assay (in vitro), chymotrypsin-like protease activity in NHDF cells; assay type: cell-based; conditions: 72 h
T1 construct: NHDF (normal human dermal fibroblasts) cells are disseminated in a 96-well microtiter plate; endogenous in cells; host or cells: NHDF (normal human dermal fibroblasts)

[1] = tested on: B16V mouse melanoma cells; assay: Depigmentation effect on melanoma cell cultures; assay type: cell-based; conditions: 0.6 mM tyrosine and 10 nM α-MSH, 96 h, read-out: IC50, inhibition of pigmentation
Protocol: B16V mouse melanoma cells are disseminated in a 96-well micro-titre plate in a concentration of 7.5 x 10^3 cells/well. After cultivation for 24 h at 37°C and 5% CO2 in RPMI medium, enriched with 10% foetal calf serum, various concentrations of the test substances and 0.6 mM tyrosine and 10 nM α-MSH (α-melanocyte stimulating hormone) are added and incubated for a further 96 h. The maximum concentration of the test substances used corresponds to 0.1 times the value of the IC20 value of the cytotoxicity assay. Only tyrosine and α-MSH are added to the controls. After incubation, sodium hydroxide solution (final concentrations: 1 M) is added to the culture medium and the absorption (A) is measured after 3 h at 400 nm.
From the inhibition of pigmentation (%) in a series of dilutions of test compounds, the IC50 for each test compound is calculated. This is the concentration of a test compound at which pigmentation is inhibited by 50%.

SIRT1 = SIRT1 assay (in vitro), SIRT1 expression by immunofluorescence in NHDF cells; assay type: cell-based, human; conditions: 10 µM, 48 h, mean values of at least 2 independent experiments
Protocol: NHDF cells (normal human dermal fibroblasts) were seeded in 96-well plates. After 24 h cultivation at 37 °C and 5% CO2 in DMEM (Dulbecco's Modified Eagle Medium), cells were treated with test substances for another 48 h. After washing the cells with PBS (phosphate buffered saline), the cells were fixed with paraformaldehyde and permeabilized. Then they were washed again and blocked with BSA (bovine serum albumen), followed by incubation with […]. After extensive washing, the fluorescence is measured in a microplate reader and fluorescence images were recorded on a fluorescence microscope with an attached […].
The stimulation of SIRT1 expression was calculated by: Stimulation of SIRT1expression[%] = ((RFU test substance−RFU background)/(RFU control−RFU background) × 100)−100 [formula] • RFU test substance = relative fluorescent units of the wells with test substance, stained completely • RFU control = relative fluorescent units of the wells without test substance, stained completely • RFU background = relative fluorescent units of the wells without test substance, stained only with secondary antibody.

[2] = tested on: HHFSC (Human Hair Follicle Stem Cells); assay: Stem cell protection (in vitro): inhibition of UVB-induced apoptosis, caspase 3/7 chemiluminescence; assay type: cell-based; conditions: light or radiation study, 25 mJ/cm^2 UVB, relative to control, read-out: Inhibition of UV induced apoptosis
Protocol: HHFSC (Human Hair Follicle Stem Cells) isolated from hair follicle bulge (Celprogen) were cultivated in culture ware pre-coated with Human Hair Follicle Stem Cell Extra-cellular Matrix (Celprogen). The cells were incubated 2 h prior to and 16 h after UVB irradiation with test compounds. Cells were irradiated with 25 mJ/cm^2 UVB in the presence of buffer solution. Apoptosis induction was evaluated by caspase 3/7 protein expression (Caspase-Glo 3/7, Promega) and quantified by chemiluminescence measurement.

Heme oxygenase-1 = Heme oxygenase-1 expression (in vitro), Western blot in NHDF cells; assay type: cell-based, human; conditions: 24 h
Protocol: NHDF (normal human dermal fibroblasts) cells were disseminated in a 6-well plate. After cultivation in fully enriched medium (DMEM, 10% FCS) for 48 h, the serum content was reduced to 0.1% to synchronize the cell cycle. Various concentrations of the test substances, the negative control (untreated cells) and tert.- butylhydrochinon as positive control, are added and incubated for a further 24 h. After cell lysis, the protein amount was determined using the Biorad BCA assay. All samples were adjusted to the same protein level before application on a fast Criterion Gel (Biorad) to perform electrophoresis for 20 minutes at 300 V. Thereafter the proteins were transferred to a PVDF membrane on a semi-dry blotter (30 minutes, 25 V). The blotted membrane is blocked for 4 hours in a 5% milk powder solution in TBST at 4°C. After washing, the membrane is incubated with the first antibody solution HO-1 from abcam (1:500 in 1% milk powder in TBST) over night. After this, washing is repeated and the membrane has to be incubated for 1 h in the second antibody solution (goat anti mouse coupled to HRP; 1:800 in 1% milk powder). […] The resulting band pattern is detected with a chemiluminescence sensitive camera system (Vilber Loumat). The quantification was done by densitometry. The up-regulation is calculated relative to control.

Hyaluronic acid = assay: Hyaluronic Acid Assay (in vitro), competitive ELISA in NHDF cells; assay type: cell-based, human; conditions: 72 h
Protocol: NHDF (normal human dermal fibroblasts) cells were disseminated in a 96-well microtiter plate in a concentration of 2 x 10^4 cells/well (DMEM, 10% FCS). After cultivation in fully enriched medium (DMEM, 10% FCS) for 48 h at 37°C and 5% CO2, the serum content was reduced to 0.1% to synchronize the cell cycle. Various concentrations of the test substances and TGF-beta1 as internal standard are added and incubated for a further 72 h. The maximum concentration of the test substances used corresponds to 0.2 times the value of the IC20 value of the cytotoxicity assay. Hyaluronic acid is quantified by a competitive ELISA (TECOmedical TE1017).
The percent bound for each standard and unknown substance is calculated using the following equation: HA_[ng/ml] = (Astandardortestsubstance −Ablank)/(Azerostandard −Ablank) [formula] The abbreviations have the following meanings: • A(standard or test substance): Absorption of the wells with standard or test substance • A(zero standard): Absorption of the wells without HA standard • A(blank): Absorption of the wells without antibody, without peroxidase conjugate A standard curve is generated by plotting the percent B/ B0 as a function of the log HA concentration. The HA amount in the unknown samples is calculated by interpolating from the percent B / B0 values to […]. InductionofHA[%] = ((HAtestsubstance −HAwithoutcells)/(HAcontrol −HAwithoutcells) × 100) [formula] The abbreviations have the following meanings: • HA test substance: Amount of HA of the wells with test substance and with cells • HA control: Amount of HA of the wells without test substance, but with cells • HA without cells Amount of HA of the wells without cells

| 20S proteasome stimulation relative to control (20S proteasome; 600 µM) [%] | IC50 ([1]; Mus musculus) [µM] | Compound | SIRT1 protein induction (SIRT1) [%] | further results |
| --- | --- | --- | --- | --- |
| 85 |  | 1,3-bis(2-methylcyclohexyl)urea [Compound 7] |  |  |
|  | 14.6 | C[C@@H]1CCCC[C@H]1NC(=O)NCC1CCCCC1 (relative stereo) [Compound 4, 1-(cyclohexylmethyl)-3-(trans-2-methylcyclohexyl) urea] |  |  |
| 83 |  | O=C(NC1CCCCC1)NC1CCCCC1 [Compound 1, 1,3-dicyclohexylurea] | 34 |  |
| 105 | 290 | CCC(C)NC(=O)NC1CCCCC1 (stereo not drawn) [Compound 2, 1-cyclohexyl-3-sec-butyl-urea] | 57 |  |
|  | 18 | CCCCCCNC(=O)NC1CCCCC1 [Compound 3, 1-cyclohexyl-3-hexyl-urea] |  |  |
|  | 12.6 | CCCCC(CC)CNC(=O)NC1CCCCC1 (stereo not drawn) [Compound 5, 1-cyclohexyl-3-(2-ethylhexyl)urea] | 19 | inhibition at 20 µM ([2]; 0.02 mM): 20.4%; inhibition at 200 µM ([2]; 0.2 mM): 95.3%; 20S proteasome stimulation relative to control (20S proteasome; 780 µM): 37%; HO-1 up-regulation relative to control (Heme oxygenase-1; 250 µM): 10.2-fold; Hyaluronic acid stimulation relative to control (Hyaluronic acid; 0.1 µM): 67%; Hyaluronic acid stimulation relative to control (Hyaluronic acid; 0.5 µM): 51%; Hyaluronic acid stimulation relative to control (Hyaluronic acid; 5 µM): 39% |
|  |  | CC(C)CN(C)C(=O)NC1CCCCC1 [Compound 6, 3-cyclohexyl-(1-iso-butyl-1-methyl)-urea] |  | 20S proteasome stimulation relative to control (20S proteasome; 23.5 µM): 39% |
|  | 452 | O=c1cc(CO)occ1O [Kojic acid, 5-hydroxy-2-hydroxymethyl-4-pyranone, reference compound] |  |  |
|  |  | OC[C@H]1O[C@@H](Oc2ccc(O)cc2)[C@H](O)[C@@H](O)[C@@H]1O [beta-Arbutin, reference compound] |  | IC50 [1]: 67 µM |
|  |  | CC(C)(C)c1cc(O)ccc1O [tert.-butylhydrochinon, tert.- butylhydrochinon, reference compound] |  | HO-1 up-regulation relative to control (Heme oxygenase-1; 25 µM): 24.2-fold |
